Kd and GI50 data for eight molecules are collected here from US20260062422A1 (Halda Therapeutics OpCo, Inc., priority 2022, published 2026).

Structures are written as SMILES. Some results are limits rather than exact numbers.

One assay deals with T1, BRD4-BD1 (Homo sapiens, UniProt O60885).
T1 construct: made in house; host or cells: T7 phage grown in an E. coli host derived from BL21
The assay can be described thus: bromoKdELECT assay for binding affinity to BRD4-BD1. Particulars: Table 6.

Assay [1] can be described thus: Cellular growth inhibition, T-Rex 293 SC cells with doxycycline (progesterone receptor isoform B induced), Example 45. The class given is cell-based. The note with it: progesterone receptor isoform B induced with 10 ng/mL doxycycline, 72 hours, CellTiter-Glo 2.0, Table 11.
Assay [2] relates to T-Rex 293 cell line SC cells lacking increased expression of progesterone receptor isoform B protein. The assay is described as follows: Cellular growth inhibition, T-Rex 293 SC cells without doxycycline, Example 45. The format is cell-based. Particulars: T-Rex 293 SC cells not exposed to doxycycline, 72 hours treatment, CellTiter-Glo 2.0.
In the next assay the test system is T47D cells. The assay is described as follows: Cellular growth inhibition assay for T47D cells, CellTiter-Glo. The class given is cell-based, human. Particulars: Homo sapiens, T47D, 72 h, 72 hours treatment, CellTiter-Glo 2.0 cell viability. In outline:
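Cells are plated at 3000/well and allowed 24 h before treatment. Test compound in medium containing 0.5% DMSO is then added, with DMSO-only wells as negative control, and plates are incubated 72 h at 37 °C. ATP luminescence (CellTiter-Glo 2.0) is then fitted to four parameters to derive GI50.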

Take `Cc1sc2c(c1C)C(c1ccc(Cl)cc1)=N[C@@H](CC(=O)NCCOCCOCCOCCOCCOC1CCN(c3ncc(C(=O)N[C@H]4C(C)(C)[C@H](Oc5ccc(C#N)c(Cl)c5)C4(C)C)cn3)CC1)c1nnc(C)n1-2` [Compound I-8]: the Kd (in general, the free concentration of one partner at which half of the binding sites on the other are occupied at equilibrium, for simple one-to-one binding) at BRD4-BD1 is 0.5 to 2.5 µM. Moreover, the GI50 (usually the concentration giving 50% growth inhibition) in assay [1] was below 0.5 µM; in assay [2] it was 0.5 to 1.5 µM; with T47D cells, 0.5 to 1.5 µM.
Take `Cc1sc2c(c1C)C(c1ccc(Cl)cc1)=N[C@@H](CC(=O)NCCOCCOCCOC1CCN(c3ncc(C(=O)N[C@H]4C(C)(C)[C@H](Oc5ccc(C#N)c(Cl)c5)C4(C)C)cn3)CC1)c1nnc(C)n1-2` [Compound I-7]: the Kd at BRD4-BD1 fell in the range of 0.5 to 2.5 µM. For the same molecule, the 50% growth inhibitory concentration (GI50) (in assay [1]; in assay [2]; in the assay on T47D cells) was below 0.5 µM each time.
`Cc1sc2c(c1C)C(c1ccc(CCCOC3CCN(c4ncc(C(=O)N[C@H]5C(C)(C)[C@H](Oc6ccc(C#N)c(Cl)c6)C5(C)C)cn4)CC3)cc1)=N[C@@H](C)c1nnc(C)n1-2` [Compound I-228, N-[3-(3-chloro-4-cyano-phenoxy)-2,2,4,4-tetramethyl-cyclobutyl]-2-[4-[3-[4-[(9S)-4,5,9,13-tetramethyl-3-thia-1,8,11,12-tetrazatricyclo [8.3.0.02,6]trideca-2(6),4,7,10,12-pentaen-7-yl]phenyl]propoxy]-1-piperidyl]pyrimidine-5-carboxamide] displayed a Kd at BRD4-BD1 of 0.5 to 2.5 µM. Moreover, the GI50 in assay [1] is below 0.5 µM; in assay [2], 0.5 to 1.5 µM; with T47D cells it was below 0.5 µM.
Take `CCNC(=O)C[C@@H]1N=C(c2ccc(OCCOC3CCN(c4ncc(C(=O)N[C@H]5C(C)(C)[C@H](Oc6ccc(C#N)c(Cl)c6)C5(C)C)cn4)CC3)cc2)c2c(sc(C)c2C)-n2c(C)nnc21` [Compound I-60, N-((1r,3r)-3-(3-chloro-4-cyanophenoxy)-2,2,4,4-tetramethylcyclobutyl)-2-(4-(2-(4-((S)-6-(2-(ethylamino)-2-oxoethyl)-2,3,9-trimethyl-6H-thieno[3,2-f][1,2,4]triazolo[4,3-a][1,4]diazepin-4-yl)phenoxy)ethoxy)piperidin-1-yl)pyrimidine-5-carboxamide]: the Kd at BRD4-BD1 was 0.05 to 0.5 µM. For the same molecule, the GI50 was below 0.5 µM in assay [1], below 0.5 µM in assay [2] and 0.5 to 1.5 µM in the assay with T47D cells.
Consider `Cc1sc2c(c1C)C(c1ccc(OCCOC3CCN(c4ncc(C(=O)N[C@H]5C(C)(C)[C@H](Oc6ccc(C#N)c(Cl)c6)C5(C)C)cn4)CC3)cc1)=N[C@@H](CC(=O)OC(C)(C)C)c1nnc(C)n1-2` [Compound I-235, tert-butyl 2-((S)-4-(4-(2-((1-(5-(((1r,3r)-3-(3-chloro-4-cyanophenoxy)-2,2,4,4-tetramethylcyclobutyl)carbamoyl)pyrimidin-2-yl)piperidin-4-yl)oxy)ethoxy)phenyl)-2,3,9-trimethyl-6H-thieno[3,2-f][1,2,4]triazolo[4,3-a][1,4]diazepin-6-yl)acetate], for which the Kd at BRD4-BD1 was above 2.5 µM. In addition, the GI50 (in assay [1]; in assay [2]; in the assay with T47D cells) was below 0.5 µM throughout.
For the molecule `CCNC(=O)C[C@@H]1N=C(c2ccc(N3CCN(CC4CCN(c5ncc(C(=O)N[C@H]6C(C)(C)[C@H](Oc7ccc(C#N)c(Cl)c7)C6(C)C)cn5)CC4)CC3)cc2)c2c(sc(C)c2C)-n2c(C)nnc21` [Compound I-105, N-[3-(3-chloro-4-cyano-phenoxy)-2,2,4,4-tetramethyl-cyclobutyl]-2-[4-[[4-[4-[(9S)-9-[2-(ethylamino)-2-oxo-ethyl]-4,5,13-trimethyl-3-thia-1,8,11,12-tetrazatricyclo[8.3.0.02,6]trideca-2(6),4,7,10,12-pentaen-7-yl]phenyl]piperazin-1-yl]methyl]-1-piperidyl]pyrimidine-5-carboxamide], at BRD4-BD1, the Kd fell in the range of 0.05 to 0.5 µM. In addition, the 50% growth inhibitory concentration (GI50) (in assay [1]; in assay [2]; with T47D cells) was below 0.5 µM in each case.
`COCC[C@@H]1N=C(c2ccc(CCCOC3CCN(c4ncc(C(=O)N[C@H]5C(C)(C)[C@H](Oc6ccc(C#N)c(Cl)c6)C5(C)C)cn4)CC3)cc2)c2c(sc(C)c2C)-n2c(C)nnc21` [Compound I-227, N-[3-(3-chloro-4-cyano-phenoxy)-2,2,4,4-tetramethyl-cyclobutyl]-2-[4-[3-[4-[(9S)-9-(2-methoxyethyl)-4,5,13-trimethyl-3-thia-1,8,11,12-tetrazatricyclo[8.3.0.02,6]trideca-2(6),4,7,10,12-pentaen-7-yl]phenyl]propoxy]-1-piperidyl]pyrimidine-5-carboxamide] gave a Kd at BRD4-BD1 above 2.5 µM. The figures for the GI50 (in assay [1]; in assay [2]; in the assay on T47D cells) were below 0.5 µM, 0.5 to 1.5 µM and 0.5 to 1.5 µM, respectively.
On to `Cc1sc2c(c1C)C(c1ccc(CCCOC3CCN(c4ncc(C(=O)N[C@H]5C(C)(C)[C@H](Oc6ccc(C#N)c(Cl)c6)C5(C)C)cn4)CC3)cc1)=N[C@@H](Cc1ncco1)c1nnc(C)n1-2` [Compound I-131, N-[3-(3-chloro-4-cyano-phenoxy)-2,2,4,4-tetramethyl-cyclobutyl]-2-[4-[3-[4-[(9S)-4,5,13-trimethyl-9-(oxazol-2-ylmethyl)-3-thia-1,8,11,12-tetrazatricyclo[8.3.0.02,6]trideca-2(6),4,7,10,12-pentaen-7-yl]phenyl]propoxy]-1-piperidyl]pyrimidine-5-carboxamide], for which, at BRD4-BD1, the Kd is above 2.5 µM. Further, the 50% growth inhibitory concentration (GI50) (in assay [1]; in assay [2]; in the assay with T47D cells) was below 0.5 µM in each case.
